Literature values in patent US10058616B2, “Pharmaceutical compositions to reduce complications of ocular steroid” (TAIWAN LIPOSOME COMPANY, LTD., priority 2012, dated 2018).
Like-named read-outs stand apart in the source and are kept apart here.

Tests used:
[1] = tested on: patients

Row | Compound | progression of cataract, patients ([1]; after intravitreal steroid injection) | incidence of increased IOP after intravitreal steroid injection ([1]; at 3 months) | incidence of increased IOP after intravitreal steroid injection ([1]; at 6 months) | incidence of increased IOP after intravitreal steroid injection ([1]; at one month) | half-life in the vitreous humor
1 | CC1(C)O[C@@H]2C[C@H]3[C@@H]4CCC5=CC(=O)C=C[C@]5(C)[C@@]4(F)[C@@H](O)C[C@]3(C)[C@]2(C(=O)CO)O1 [triamcinolone acetonide] | 22.72% | 75% | 47.05% | 57.69% | –
2 | dexamethasone sodium phosphate [Non-associated DSP] | – | – | – | – | about 3.5 hours
